Source: DBAASP
Converted amounts (≈) assume the structure as drawn. “And” between values parts separate entries of the source, which are not always exact repeats. Equal entries are not always repeated. One block for each compound: values may come before it.

Key:
Test in all cases: ≥ marks a high value that may be exact or a test limit, other limits are often not marked, values filed in µg/mL are converted to µM
[1] = test system: Staphylococcus aureus USA 300
[2] = test system: Pseudomonas aeruginosa PAO1
[3] = test system: Escherichia coli NCTC 12923
[4] = test system: Klebsiella pneumoniae NCTC 13368
[5] = test system: Klebsiella pneumoniae ATCC 13883
[6] = test system: Staphylococcus aureus ATCC 29213
[7] = test system: Pseudomonas aeruginosa ATCC 9027
[8] = test system: Pseudomonas aeruginosa ATCC 27853
[9] = test system: Staphylococcus aureus ATCC 33591
[10] = test system: Acinetobacter baumannii ATCC 17978
[11] = test system: Pseudomonas aeruginosa ATCC BAA-2114
[12] = test system: Staphylococcus aureus ATCC 9144
[13] = test system: Enterococcus faecalis ATCC 19433
[14] = test system: Staphylococcus epidermidis ATCC 12228
[15] = test system: Salmonella enterica subsp. enterica serovar Choleraesuis ATCC 10708
[16] = test system: Staphylococcus aureus ATCC 43300
[17] = test system: Escherichia coli ATCC 25922
Botrytis cinerea = test system: Botrytis cinerea
[18] = test system: Pseudomonas corrugata DSM 7228
[19] = test system: Pseudomonas syringae pv. syringae DSM 10604
[20] = test system: Clavibacter michiganensis subsp. michiganensis DSM 46294
[21] = test system: Pectobacterium carotovorum subsp. carotovorum DSM 30168
Cladosporium herbarum = test system: Cladosporium herbarum
[22] = test system: Xanthomonas vesicatoria DSM 50861
Alternaria alternata = test system: Alternaria alternata
[23] = test system: Pseudomonas syringae pv. tomato DC3000
[24] = test system: Staphylococcus aureus 90857
[25] = test system: Candida albicans ATCC 10231
[26] = test system: Escherichia coli LMG 15862
[27] = test system: Staphylococcus aureus ATCC 25923
[28] = test system: Klebsiella pneumoniae ATCC 700603
[29] = test system: Candida albicans ATCC 64550
[30] = test system: Salmonella enterica subsp. enterica serovar Enteritidis ATCC 13076
[31] = test system: Streptococcus pneumoniae ATCC 33400
[32] = test system: Streptococcus agalactiae ATCC 13813
[33] = test system: Listeria monocytogenes ATCC 19115
[34] = test system: Campylobacter jejuni ATCC 33291
Fusarium oxysporum LD21 = test system: Fusarium oxysporum LD21
[35] = test system: Shewanella putrefaciens ATCC 49138
[36] = test system: Enterococcus faecalis JH-2-2
[37] = test system: Escherichia coli CGSC 5167
[38] = test system: Enterococcus faecium ATCC 35667
[39] = test system: Pseudomonas aeruginosa LMG 6395
[40] = test system: Pseudomonas aeruginosa ATCC 10145
[41] = test system: Staphylococcus epidermidis ATCC 29887
[42] = test system: Acinetobacter baumannii LMG 01041
[43] = test system: Klebsiella pneumoniae LMG 20218
[44] = test system: Streptococcus pneumoniae ATCC 700677
[45] = test system: Klebsiella aerogenes LMG 02094
[46] = test system: Enterococcus faecium ATCC 51559
[47] = test system: Bacillus subtilis ATCC 9372
[48] = test system: Bacillus anthracis Sterne 34F2
[49] = test system: Burkholderia thailandensis

MIC [1]: 3.7 µM (≈ 8 µg/mL) | MIC [2]: 14.8 µM (≈ 32 µg/mL) | MIC [3]: 1.85 µM (≈ 4 µg/mL) | MIC [4]: 7.4 µM (≈ 16 µg/mL) | MIC [5]: 5 µM (≈ 10.8 µg/mL) | MIC [6]: 5 µM and 3 µM | MIC [7]: 5 µM (≈ 10.8 µg/mL) | MIC [8]: 35 µM (≈ 75.7 µg/mL) | MIC [9]: 5 µM and 3 µM | MIC [10]: 1.85 µM (≈ 4 µg/mL) | MIC [11]: ≥ 35 µM | MIC [12]: 1.85 µM (≈ 4 µg/mL) | MIC [13]: 5 µM (≈ 10.8 µg/mL) | MIC [14]: 5 µM (≈ 10.8 µg/mL) | MIC [16]: 5 µM (≈ 10.8 µg/mL) | MIC [17]: 7.5 µM (≈ 16.2 µg/mL)
Compound: CC[C@H](C)[C@H](NC(=O)[C@H](C)NC(=O)[C@H](CCCCN)NC(=O)[C@@H]1CCCN1C(=O)[C@@H](NC(=O)[C@H](CC(C)C)NC(=O)[C@H](CCCCN)NC(=O)[C@H](Cc1ccccc1)NC(=O)[C@H](CC(C)C)NC(=O)[C@@H](N)Cc1ccccc1)[C@@H](C)CC)C(=O)N[C@@H](CCCCN)C(=O)N[C@@H](CCCCN)C(=O)N[C@@H](CC(C)C)C(=O)N[C@H](C(=O)N[C@@H](CO)C(=O)N[C@@H](CCCCN)C(=O)N[C@@H](Cc1ccccc1)C(=O)N[C@@H](CCCCN)C(=O)O)[C@@H](C)CC [FLFKLIPKAIKKLISKFK]
MIC [15]: 7.5 µM (≈ 16.2 µg/mL)

MIC (Botrytis cinerea): ≥ 64.3 µM | MIC [18]: 6.43 µM (≈ 9.99 µg/mL) | MIC [19]: 6.43 µM (≈ 9.99 µg/mL) | MIC [20]: 3.21 µM (≈ 5 µg/mL) | MIC [21]: 25.7 µM (≈ 40 µg/mL) | MIC (Cladosporium herbarum): 12.9 µM (≈ 20 µg/mL) | MIC [22]: 3.21 µM (≈ 5 µg/mL) | MIC (Alternaria alternata): ≥ 64.3 µM | MIC [23]: 3.21 µM (≈ 5 µg/mL)
Compound: CC[C@H](C)[C@H](NC(=O)[C@H](Cc1ccccc1)NC(=O)[C@H](CCCN=C(N)N)NC(=O)[C@H](CCCCN)NC(=O)[C@H](CC(C)C)NC(=O)[C@H](Cc1ccccc1)NC(=O)[C@H](CCCCN)NC(=O)[C@@H](NC(=O)[C@H](CC(C)C)NC(=O)[C@@H](N)CC(C)C)[C@@H](C)CC)C(=O)N[C@@H](CCCCN)C(=O)N[C@@H](Cc1cnc[nH]1)C(N)=O [LLIKFLKRFIKH]

MIC [18]: 1.62 µM (≈ 2.5 µg/mL) | MIC [19]: 1.62 µM (≈ 2.5 µg/mL) | MIC [20]: 0.646 µM (≈ 0.999 µg/mL) | MIC [21]: 1.62 µM (≈ 2.5 µg/mL) | MIC [24]: 1.5 µM (≈ 2.32 µg/mL) | MIC [22]: 1.62 µM (≈ 2.5 µg/mL) | MIC [23]: 0.646 µM (≈ 0.999 µg/mL)
Compound: CC[C@H](C)[C@H](NC(=O)[C@H](CCCCN)NC(=O)[C@H](CCCCN)NC(=O)[C@H](CC(C)C)NC(=O)[C@H](Cc1ccccc1)NC(=O)[C@H](CCCN=C(N)N)NC(=O)[C@@H](N)CC(C)C)C(=O)N[C@@H](CC(C)C)C(=O)N[C@@H](CCCCN)C(=O)N[C@@H](CCCCN)C(=O)N[C@@H](CC(C)C)C(=O)N[C@@H](Cc1ccccc1)C(N)=O [LRFLKKILKKLF]

MIC [25]: 7.57 µM (≈ 12 µg/mL) | MIC [26]: 2 µM (≈ 3.17 µg/mL) | MIC [5]: 0.1 µM (≈ 0.158 µg/mL) | MIC [27]: 0.8 µM (≈ 1.27 µg/mL) | MIC [28]: 0.3 µM (≈ 0.475 µg/mL) | MIC [6]: 3.79 µM (≈ 6 µg/mL) | MIC [29]: ≥ 100 µM | MIC [30]: 3.79 µM (≈ 6 µg/mL) | MIC [8]: 1.5 µM (≈ 2.38 µg/mL) | MIC [31]: 0.8 µM (≈ 1.27 µg/mL) | MIC [9]: 0.3 µM (≈ 0.475 µg/mL) | MIC [32]: 1.89 µM (≈ 3 µg/mL) | MIC [33]: 3.79 µM (≈ 6 µg/mL) | MIC [34]: 3.79 µM (≈ 6 µg/mL) | MIC [35]: 3.79 µM (≈ 6 µg/mL) | MIC [36]: 15.8 µM (≈ 25 µg/mL) | MIC [37]: 0.2 µM (≈ 0.317 µg/mL) | MIC [38]: 1 µM (≈ 1.58 µg/mL) | MIC [39]: 3 µM (≈ 4.75 µg/mL) | MIC [40]: 2.5 µM (≈ 3.96 µg/mL) | MIC [41]: 1.89 µM (≈ 3 µg/mL) | MIC [42]: 2 µM (≈ 3.17 µg/mL) | MIC [43]: 4 µM (≈ 6.34 µg/mL) | MIC [44]: 0.4 µM (≈ 0.634 µg/mL) | MIC [45]: 8 µM (≈ 12.7 µg/mL) | MIC [17]: 0.5 µM (≈ 0.792 µg/mL) | MIC [46]: 1 µM (≈ 1.58 µg/mL)
Compound: CC[C@H](C)[C@H](NC(=O)[C@H](CCCN=C(N)N)NC(=O)[C@H](CCCN=C(N)N)NC(=O)[C@H](Cc1ccccc1)NC(=O)[C@H](CC(C)C)NC(=O)[C@H](CCCN=C(N)N)NC(=O)[C@@H](N)CCCN=C(N)N)C(=O)N[C@@H](CC(C)C)C(=O)N[C@@H](CCCN=C(N)N)C(=O)N[C@@H](Cc1c[nH]c2ccccc12)C(=O)N[C@@H](CC(C)C)C(N)=O [RRLFRRILRWL]
MIC (Fusarium oxysporum LD21): 7.57 µM (≈ 12 µg/mL)

Compound: CSCC[C@H](NC(=O)[C@H](CO)NC(=O)[C@H](Cc1ccc(O)cc1)NC(=O)[C@H](CO)NC(C)=O)C(=O)N[C@@H](CCC(=O)O)C(=O)N[C@@H](Cc1cnc[nH]1)C(=O)N[C@@H](Cc1ccccc1)C(=O)N[C@@H](CCCN=C(N)N)C(=O)N[C@@H](Cc1c[nH]c2ccccc12)C(=O)NCC(=O)N[C@@H](CCCCN)C(=O)N1CCC[C@H]1C(=O)N[C@H](C(N)=O)C(C)C [SYSMEHFRWGKPV]
MIC [47]: ≥ 100 µM | MIC [48]: ≥ 100 µM | MIC [49]: ≥ 50 µM
